Measured values taken from patent publication US20260315434A1, “USE OF GUAIACOL SESQUITERPENE LACTONE DERIVATIVES” (NANJING UNIVERSITY OF CHINESE MEDICINE, priority 2023, published 2026).
Marks after values point to notes of the source that are not given here.

Columns and labels:
[1] = tested on: renal injury markers (Ngal, Havcr1) in kidney tissue; assay: Folic acid-induced acute kidney injury, renal injury marker mRNA; format: in vivo, C57BL/6 mice; set-up: scale not given here; details: folic acid acute model
Description: (§1) Except for the normal group, all other mice were administered folic acid (250 mg/kg) dissolved in 0.9% NaHCO3 solution via intraperitoneal injection to establish an acute kidney injury model.
(§2) The blood was allowed to stand at room temperature for 2 hours, then centrifuged at 3000 rpm for 20 minutes. Serum was aspirated, aliquoted, and stored at −70° C. for future use. Following blood collection, euthanize mice by cervical dislocation. Perform laparotomy to remove kidneys, dissect out perirenal fat and capsules. […] Paraffin-embedded specimens undergo HE staining; remaining tissue is stored at −70° C. for future use.

[2] = tested on: fibrosis-related factors (α-Sma, Col1a1, Tgfb1) in kidney tissue; assay: Folic acid-induced kidney injury, renal fibrosis-related factor mRNA; format: in vivo, C57BL/6 mice; details: folic acid model
Description: as §1, §2

[3] = tested on: renal injury markers (Ngal, Havcr1) in kidney tissue; assay: Unilateral ureteral ligation (UUO) chronic kidney injury, renal injury marker mRNA; format: in vivo, C57BL/6 mice; set-up: unit not given here; details: UUO chronic model
Excerpt: (§3) Chronic Kidney Injury: Mice were randomly divided into five groups. […] Except for the sham-operated mice in the normal group (where only the left ureter was exposed without further manipulation), all other mice underwent unilateral ureteral ligation to establish a chronic kidney injury model as follows: The abdominal skin was disinfected with iodine solution followed by alcohol. An incision was made, and the abdominal layers were dissected sequentially. The left ureter was fully exposed and dissected. A double ligation was performed at the bladder-proximal end of the left ureter using absorbable suture material, followed by closure.
as §2

[4] = tested on: inflammatory cytokines (TNF, IL-6, IL-1) in renal tissue; assay: UUO chronic kidney injury, renal inflammatory factor mRNA; format: in vivo, C57BL/6 mice; set-up: unit not given here; details: UUO chronic model
Excerpt: as §3, §2

[5] = tested on: fibrosis-related factors (α-Sma, Col1a1, Tgfb1) in kidney tissue; assay: UUO chronic kidney injury, renal fibrosis-related factor mRNA; format: in vivo, C57BL/6 mice; set-up: unit not given here; details: UUO chronic model
Excerpt: as §3, §2

Hepa1-6 cells = assay: Antitumor effect in Hepa1-6 mouse hepatocellular carcinoma subcutaneous xenograft model; format: in vivo, C57BL/6 mice; details: 40 μmol/kg/d oral, 2 weeks; for Tumor weight: solvent 0.92 ± 1.41
H22 cells = assay: Antitumor effect in H22 mouse hepatocellular carcinoma subcutaneous xenograft model; format: in vivo, BALB/c mice; details: oral, 2 weeks; for Tumor Suppression Rate (%) / Tumor weight: 40 μmol/kg/day, H22 xenograft; for tumor-inhibiting effect, H22: result in words
T cells = assay: Proportion of T cells in tumor and spleen of H22 xenograft mice (flow cytometry); format: in vivo, BALB/c mice; details: for Spleen T cells (%) / Tumor T cells (%): 40 μmol/kg/day, oral, 2 weeks, flow cytometry; for proportion of T cells in tumor tissues and spleens: compared with solvent control, result in words
Description: Once all tumors were dissected, nail-sized tumor pieces were transferred to 1.5 mL Eppendorf tubes and minced with scissors. Transfer the minced tumor tissue suspension to a 15 mL centrifuge tube containing 3-5 mL of digestive enzymes (Collagenase IV 1 mg/mL, Hyaluronidase 1 mg/mL, DNase 120 U/mL). Incubate at 37° C. on a shaking incubator at 200 rpm for 1 hour. After digestion, pass the mixture through a 200-mesh sieve to obtain the tumor cell suspension. Centrifuge the resulting tumor suspension at 1600 rpm for 5 min, aspirate the supernatant, resuspend cells in 1 mL of 1×PBS per tube. Transfer the cell suspension to a 1.5 mL Eppendorf tube, centrifuge at 1600 rpm for 5 min, remove the supernatant, resuspend cells in 100 μL of 1×PBS per tube, add 1 μL of dead/live dye to each tube, mix thoroughly, and incubate at room temperature in the dark for 15 min. […] Position the spleen on a 200-mesh cell strainer. Gently press the spleen using a 10 mL syringe needle. […] Transfer the splenocyte suspension into a 15 mL centrifuge tube. Centrifuge at 1600 rpm for 5 min to collect cells. Wash once with 1×PBS. Add 3 mL red blood cell lysis buffer (diluted with ddH2O) to each tube and incubate for 5 min. After lysis, add 10 mL 1×PBS to each tube to terminate lysis. Centrifuge at 1600 rpm for 5 min. Add 1 mL 1×PBS to each 15 mL centrifuge tube, transfer to 1.5 mL EP tubes, and centrifuge at 1600 rpm for 5 min. Add 1×PBS to each tube containing stained tumor cells and lysed spleen cells for one wash, centrifuge at 1600 rpm for 5 min, and remove the supernatant. Resuspend tumor cells and spleen cells separately in 100 μL 1×PBS. Add 1 μL FcX™ antibody to each tube and incubate at room temperature in the dark for 10 min. After incubation, sequentially add 1 μL each of CD45, CD3, and CD8 antibodies to each tube. Incubate at 4° C. in the dark for 30 min. After staining, wash once with 1 mL PBS. Centrifuge at 1600 rpm for 5 min. Discard the supernatant. Resuspend cells in 300 μL 1×PBS. Filter the cell suspension into a flow cytometry tube and proceed to instrument analysis.

4T1 cells = assay: Antitumor effect in 4T1 mouse mammary carcinoma xenograft model; format: in vivo, BALB/c mice; details: oral, 3 weeks; for antitumor effect, 4T1: result in words
Description: 4T1 cells were cultured and expanded in vitro. […] A 100 μL aliquot of this suspension was injected subcutaneously into the left forelimb axilla of female BALB/c mice. […] Daily oral administration was performed for 3 weeks. During the treatment period, mouse body weight and tumor diameter were measured daily. At the end of the experiment, mice were euthanized by cervical dislocation, and tumors were removed for weighing. Tumor volume (TV) was calculated using the formula: TV=½×a×b^2, where a represents the longest diameter of the tumor and b represents the shortest diameter.

CT26 cells = assay: Antitumor effect in CT26 colon cancer mouse subcutaneous model; format: in vivo, BALB/c mice; details: oral, 3 weeks

CN(C)C[C@@H]1C(=O)O[C@H]2[C@H]1CC[C@@]1(C)C[C@]13CC[C@@](C)(O)[C@H]23 [Compound 21]
Havcr1 mRNA expression, kidney ([1]; 0.1 mg/kg oral): 170.08 ± 33.10 | Ngal mRNA expression, kidney ([1]; 0.1 mg/kg oral): 25.75 ± 2.80 | Havcr1 mRNA expression, kidney ([1]; 1 mg/kg oral, 1 mg/kg): 83.11 ± 16.85 | Ngal mRNA expression, kidney ([1]; 1 mg/kg oral, 1 mg/kg): 13.08 ± 2.41 | Col1a1 mRNA expression, kidney ([2]; 0.1 mg/kg oral): 1.58 ± 0.35 | Tgfb1 mRNA expression, kidney ([2]; 0.1 mg/kg oral): 1.64 ± 0.16 | α-Sma mRNA expression, kidney ([2]; 0.1 mg/kg oral): 1.80 ± 0.42 | Col1a1 mRNA expression, kidney ([2]; 1 mg/kg oral, 1 mg/kg): 1.20 ± 0.19 | Tgfb1 mRNA expression, kidney ([2]; 1 mg/kg oral, 1 mg/kg): 1.09 ± 0.15 | α-Sma mRNA expression, kidney ([2]; 1 mg/kg oral, 1 mg/kg): 0.90 ± 0.21 | Havcr1 mRNA expression, kidney ([3]; 0.1 mg/kg oral): 11.90 ± 4.52 | Ngal mRNA expression, kidney ([3]; 0.1 mg/kg oral): 35.77 ± 7.67 | Havcr1 mRNA expression, kidney ([3]; 1 mg/kg oral, 1 mg/kg): 7.25 ± 0.80 | Ngal mRNA expression, kidney ([3]; 1 mg/kg oral, 1 mg/kg): 19.42 ± 1.55 | Il1 mRNA expression, kidney ([4]; 0.1 mg/kg oral): 5.32 ± 0.56 | Il6 mRNA expression, kidney ([4]; 0.1 mg/kg oral): 14.31 ± 6.01 | Tnf mRNA expression, kidney ([4]; 0.1 mg/kg oral): 7.10 ± 1.93 | Il1 mRNA expression, kidney ([4]; 1 mg/kg oral, 1 mg/kg): 3.55 ± 0.50 | Il6 mRNA expression, kidney ([4]; 1 mg/kg oral, 1 mg/kg): 5.61 ± 2.10 | Tnf mRNA expression, kidney ([4]; 1 mg/kg oral, 1 mg/kg): 7.53 ± 0.68 | Col1a1 mRNA expression, kidney ([5]; 0.1 mg/kg oral): 11.79 ± 1.18 | Tgfb1 mRNA expression, kidney ([5]; 0.1 mg/kg oral): 1.76 ± 0.05 | α-Sma mRNA expression, kidney ([5]; 0.1 mg/kg oral): 2.02 ± 0.39 | Col1a1 mRNA expression, kidney ([5]; 1 mg/kg oral, 1 mg/kg): 8.27 ± 1.15 | Tgfb1 mRNA expression, kidney ([5]; 1 mg/kg oral, 1 mg/kg): 1.53 ± 0.14 | α-Sma mRNA expression, kidney ([5]; 1 mg/kg oral, 1 mg/kg): 1.39 ± 0.04

CC1=C2CC[C@@](C)(OC(=O)N3CCCCC3)[C@@H]2[C@H]2OC(=O)[C@@H](CN(C)C)[C@@H]2CC1 [Compound 102]
Tumor Inhibition Rate (Hepa1-6 cells): 96.67% | Tumor weight (Hepa1-6 cells): 0.03 ± 0.04 g | Tumor Suppression Rate (%) (H22 cells): 27.99% | Tumor weight (H22 cells): 6.13 ± 1.48 g | tumor-inhibiting effect, H22 (H22 cells): tumor-inhibiting effects | Spleen T cells (%) (T cells): 31.69 ± 6.44 % | Tumor T cells (%) (T cells): 20.86 ± 4.15 % | proportion of T cells in tumor tissues and spleens (T cells): significantly increased | Tumor inhibition rate (%) (4T1 cells; 40 μmol/kg/day, 4T1): −20.37% | Tumor weight (4T1 cells; 40 μmol/kg/day, 4T1): 2.18 ± 1.34 g | antitumor effect, 4T1 (4T1 cells): no significant antitumor effects

CC1=C2CC[C@@](C)(OC(=O)N3CCCC3)[C@@H]2[C@H]2OC(=O)[C@@H](CN3CCCC3)[C@@H]2CC1 [Compound 103]
Havcr1 mRNA expression, kidney ([1]; 0.1 mg/kg oral): 452.14 ± 212.69 | Ngal mRNA expression, kidney ([1]; 0.1 mg/kg oral): 148.49 ± 116.61 | Havcr1 mRNA expression, kidney ([1]; 1 mg/kg oral): 415.10 ± 120.96 | Ngal mRNA expression, kidney ([1]; 1 mg/kg oral): 85.57 ± 27.78 | Havcr1 mRNA expression, kidney ([1]; 10 mg/kg oral): 331.69 ± 98.67 | Ngal mRNA expression, kidney ([1]; 10 mg/kg oral): 69.68 ± 25.32 | Col1a1 mRNA expression, kidney ([2]; 0.1 mg/kg oral): 2.45 ± 0.63 | α-Sma mRNA expression, kidney ([2]; 0.1 mg/kg oral): 3.50 ± 1.91 | Col1a1 mRNA expression, kidney ([2]; 1 mg/kg oral): 2.25 ± 0.58 | α-Sma mRNA expression, kidney ([2]; 1 mg/kg oral): 3.03 ± 0.99 | Col1a1 mRNA expression, kidney ([2]; 10 mg/kg oral): 1.93 ± 0.41 | α-Sma mRNA expression, kidney ([2]; 10 mg/kg oral): 1.55 ± 0.61 | Havcr1 mRNA expression, kidney ([3]; 0.1 mg/kg oral): 117.81 ± 37.55 | Ngal mRNA expression, kidney ([3]; 0.1 mg/kg oral): 145.28 ± 50.31 | Havcr1 mRNA expression, kidney ([3]; 1 mg/kg oral): 88.33 ± 33.24 | Ngal mRNA expression, kidney ([3]; 1 mg/kg oral): 118.82 ± 38.60 | Havcr1 mRNA expression, kidney ([3]; 10 mg/kg oral): 93.99 ± 49.52 | Ngal mRNA expression, kidney ([3]; 10 mg/kg oral): 104.98 ± 18.55 | Il1 mRNA expression, kidney ([4]; 0.1 mg/kg oral): 5.45 ± 2.35 | Il6 mRNA expression, kidney ([4]; 0.1 mg/kg oral): 52.89 ± 40.54 | Tnf mRNA expression, kidney ([4]; 0.1 mg/kg oral): 4.21 ± 0.82 | Il1 mRNA expression, kidney ([4]; 1 mg/kg oral): 3.49 ± 0.93 | Il6 mRNA expression, kidney ([4]; 1 mg/kg oral): 32.19 ± 25.90 | Tnf mRNA expression, kidney ([4]; 1 mg/kg oral): 3.80 ± 0.40 | Il1 mRNA expression, kidney ([4]; 10 mg/kg oral): 3.19 ± 0.85 | Il6 mRNA expression, kidney ([4]; 10 mg/kg oral): 31.08 ± 18.80 | Tnf mRNA expression, kidney ([4]; 10 mg/kg oral): 3.06 ± 0.47 | Col1a1 mRNA expression, kidney ([5]; 0.1 mg/kg oral): 10.58 ± 2.78 | α-Sma mRNA expression, kidney ([5]; 0.1 mg/kg oral): 6.33 ± 0.96 | Col1a1 mRNA expression, kidney ([5]; 1 mg/kg oral): 11.02 ± 2.81 | α-Sma mRNA expression, kidney ([5]; 1 mg/kg oral): 6.01 ± 1.21 | Col1a1 mRNA expression, kidney ([5]; 10 mg/kg oral): 9.31 ± 2.28 | α-Sma mRNA expression, kidney ([5]; 10 mg/kg oral): 4.86 ± 0.99 | Tumor Inhibition Rate (Hepa1-6 cells): 96.22% | Tumor weight (Hepa1-6 cells): 0.03 ± 0.06 g | Tumor Suppression Rate (%) (H22 cells): 60.34% | Tumor weight (H22 cells): 5.02 ± 0.48 g | tumor-inhibiting effect, H22 (H22 cells): tumor-inhibiting effects | Spleen T cells (%) (T cells): 34.22 ± 4.88 % | Tumor T cells (%) (T cells): 27.62 ± 5.12 % | proportion of T cells in tumor tissues and spleens (T cells): significantly increased | Tumor inhibition rate (%) (CT26 cells; 80 μmol/kg/day, CT26): 39.72%* | Tumor weight (CT26 cells; 80 μmol/kg/day, CT26): 4.86 ± 0.72 g | tumor-inhibiting effect, CT26 (CT26 cells; result in words): tumor-inhibiting effects | antitumor effect, 4T1 (4T1 cells): no significant antitumor effects
